From the supplement of paper PMC10307832

Assays:
Experiment in all cases: relative viability (nuclei count vs DMSO), 5 days (fraction); higher = more cells survive
Pemetrexed + Bortezomib = compound: Nc1nc2[nH]cc(CCc3ccc(C(=O)N[C@@H](CCC(=O)O)C(=O)O)cc3)c2c(=O)[nH]1 [Pemetrexed] + CC(C)C[C@H](NC(=O)[C@H](Cc1ccccc1)NC(=O)c1cnccn1)B(O)O [Bortezomib] (partner 0.002 µM)
Method in brief: (§1)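 Values are medians from duplicate plates. Each reflects relative viability, defined as the nuclei count of treated wells over that of vehicle wells. Lung cancer cell lines in 1536-well plates were pin-tool dosed one day after seeding with one drug alone or with a fixed anchor-drug dose plus five library-drug doses (not always all listed) in √10 steps, then fixed, stained and imaged at 4× after 5 days.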

Idelalisib + Bortezomib = compound: CC[C@H](Nc1ncnc2[nH]cnc12)c1nc2cccc(F)c2c(=O)n1-c1ccccc1 [Idelalisib] + CC(C)C[C@H](NC(=O)[C@H](Cc1ccccc1)NC(=O)c1cnccn1)B(O)O [Bortezomib] (partner 0.002 µM)
Method in brief: as §1

Pemetrexed + Crizotinib = compound: Nc1nc2[nH]cc(CCc3ccc(C(=O)N[C@@H](CCC(=O)O)C(=O)O)cc3)c2c(=O)[nH]1 [Pemetrexed] + C[C@@H](Oc1cc(-c2cnn(C3CCNCC3)c2)cnc1N)c1c(Cl)ccc(F)c1Cl [Crizotinib] (partner 1 µM)
Method in brief: as §1

Idelalisib + Foretinib = compound: CC[C@H](Nc1ncnc2[nH]cnc12)c1nc2cccc(F)c2c(=O)n1-c1ccccc1 [Idelalisib] + COc1cc2c(Oc3ccc(NC(=O)C4(C(=O)Nc5ccc(F)cc5)CC4)cc3F)ccnc2cc1OCCCN1CCOCC1 [Foretinib] (partner 0.25 µM)
Method in brief: as §1

| Cell Line | relative viability (Pemetrexed + Bortezomib; first compound 0.002 µM) | relative viability (Pemetrexed + Bortezomib; first compound 0.006325 µM) | relative viability (Pemetrexed + Bortezomib; first compound 0.02 µM) | relative viability (Pemetrexed + Bortezomib; first compound 0.06325 µM) | relative viability (Pemetrexed + Bortezomib; first compound 0.2 µM) | relative viability (Idelalisib + Bortezomib; first compound 0.04 µM) | relative viability (Idelalisib + Bortezomib; first compound 0.1265 µM) | relative viability (Idelalisib + Bortezomib; first compound 0.4 µM) | relative viability (Idelalisib + Bortezomib; first compound 1.265 µM) | relative viability (Idelalisib + Bortezomib; first compound 4 µM) | relative viability (Pemetrexed + Crizotinib; first compound 0.002 µM) | relative viability (Pemetrexed + Crizotinib; first compound 0.006325 µM) | relative viability (Pemetrexed + Crizotinib; first compound 0.02 µM) | relative viability (Pemetrexed + Crizotinib; first compound 0.06325 µM) | relative viability (Pemetrexed + Crizotinib; first compound 0.2 µM) | relative viability (Idelalisib + Foretinib; first compound 0.04 µM) | relative viability (Idelalisib + Foretinib; first compound 0.1265 µM) | relative viability (Idelalisib + Foretinib; first compound 0.4 µM) | relative viability (Idelalisib + Foretinib; first compound 1.265 µM) | relative viability (Idelalisib + Foretinib; first compound 4 µM) |
| --- | --- | --- | --- | --- | --- | --- | --- | --- | --- | --- | --- | --- | --- | --- | --- | --- | --- | --- | --- | --- |
| ChaGo-K-1 | 1.09 | 1.11 | 1.05 | 0.332 | 0.307 | 1.09 | 0.945 | 1.01 | 1.04 | 1.17 | 1.15 | 1 | 0.969 | 0.366 | 0.344 | 1.02 | 0.919 | 0.766 | 0.931 | 0.82 |
| NCI-H2023 | 0.519 | 0.912 | 1.04 | 0.815 | 0.304 | 1.11 | 1.09 | 0.681 | 1.03 | 0.871 | 0.632 | 0.616 | 0.685 | 0.607 | 0.377 | 0.92 | 0.859 | 0.617 | 0.739 | 0.637 |
| EKVX | 0.939 | 0.946 | 0.971 | 0.979 | 0.553 | 1.1 | 0.986 | 1.01 | 0.87 | 0.808 | 0.816 | 0.841 | 0.907 | 0.856 | 0.508 | 0.826 | 0.984 | 0.773 | 0.843 | 0.808 |
| NCI-H2085 | 1.01 | 1.19 | 1.04 | 1.09 | 1.05 | 0.916 | 1.08 | 0.983 | 1.06 | 0.848 | 0.96 | 0.869 | 0.752 | 0.896 | 0.924 | 0.971 | 0.913 | 0.688 | 0.777 | 0.556 |
| NCI-H3122 | 1.02 | 1.02 | 0.899 | 0.99 | 0.877 | 1.03 | 1.04 | 1.09 | 1.09 | 1.04 | 0.275 | 0.261 | 0.261 | 0.244 | 0.233 | 0.963 | 0.939 | 1 | 0.982 | 0.836 |
| HCC-827 | 0.961 | 1.02 | 1.01 | 1.01 | 0.748 | 1.1 | 0.99 | 1.03 | 1.17 | 1.07 | 0.856 | 1.03 | 0.944 | 0.888 | 0.779 | 1.1 | 0.971 | 1.04 | 1.05 | 0.915 |
| HARA | 0.567 | 1.12 | 1.17 | 0.846 | 0.453 | 1.27 | 1.02 | 1.08 | 1.2 | 1.1 | 1.27 | 1.02 | 1.03 | 0.98 | 0.216 | 1.24 | 0.934 | 0.776 | 1.04 | 0.746 |
| NCI-H441 | 0.572 | 0.602 | 0.914 | 0.825 | 0.389 | 0.406 | 0.453 | – | 0.608 | 0.37 | 0.608 | 0.777 | 0.865 | 0.567 | 0.396 | 1.15 | 1.09 | 1.05 | 1.11 | 1.2 |
